Results published in patent US11413267B2, “Methods and compositions for inhibition of ATR and FANCD2 activation” (priority 2012, dated 2022).
Marks after values point to notes of the source that are not given here.

Experiments:
cancer cells = assay: MTT cytotoxicity assay on cancer cells, 48 h; type: cell-based, human; conditions: FIG. 4
MDA-MB-231 cells = assay: In vitro chemosensitization assay (clonogenic survival); type: cell-based, human
Description: Inhibition of the checkpoint and repair mechanisms leads to chemosensitization in cancers. […] We further treated individual cells with cisplatin in combination with several varying doses of benzopyran-4-one derivatives, and counted survival colonies to determine their ability to survive after cisplatin-induced damage. […] To investigate the chemosensitization effect of low-dose benzopyran-4-one derivatives in vivo, we established a tumor xenograft in nude mice using human MDA-MB-231 tumor cells, which are considered to be more resistant to cisplatin and are also sensitive to treatment with benzopyran-4-one derivatives, at least as compared to A549 cells (FIGS. 4, 17(a) and 17(b)). […] The pharmacokinetic data of Protoapigenone (I-1) and compound II-1 needs to be compared in future studies to determine the differences in the chemical effects of these 2 compounds in vitro and in vivo.
Please refer to FIGS. 31(a)-31(e), which are the surviving fractions of MDA-MB-231 cells which were co-administered compound II-1 with the DNA damaging agent, i.e. (a) doxorubicin, (b) etoposide, (c) mytomycin C, (d) camptothecin, or (e) taxol. […] Accordingly, a low dose of benzopyran-4-one derivatives can enhance the chemosensitivity of the chemotherapeutic drug.
To evaluate in vitro chemosensitization, cells were seeded in 6-well plates 1 d before the experiment at a density of 100-400 cells/well. The drugs were incubated with the cells for 6 h, after which the medium was replaced with fresh drug-free FBS-containing medium. The colonies became visible and were counted 7-10 d later using 0.1% crystal violet staining following image capture by a CCD camera (LAS-4000 mini; Fujifilm).

[1] = test system: A549 cells, MDA-MB-231 cells; assay: Cancer cell growth at low doses (FIGS. 19, 20); type: cell-based, human; conditions: low doses (I-1 0.25-1 μM, II-1 0.1-0.4 μM)
[2] = test system: DDR signaling (Chk2 Thr68, Chk1 Ser345 phosphorylation); assay: Immunoblot of DDR signaling after compound alone (no DNA damage); type: cell-based, human
Procedure: Since mitomycin C can induce DDR in many cancers, we investigated what kind of DDR signaling was activated by Protoapigenone (I-1). […] We repeated the benzopyran-4-one derivatives experiment on lung and breast carcinoma cell lines A549 and MDA-MB-231 cells, respectively, and obtained similar results. Consistently, no marked changes in Chk1 and Chk2 phosphorylation signaling were detected even at high doses of either drug for as long as 8 h after drug treatment (FIGS. 3(a) and 3(b)).
(§1) Cell lysate preparations, gel electrophoresis, and immunoblotting were performed as previously described (23). The binding of primary antibodies were detected by horseradish peroxidase-coupled secondary antibodies (Jackson ImmunoResearch) followed by enhanced chemiluminescence (ECL) (Millipore). The images of non-saturated bands were captured using a luminescent image analyzer (LAS-4000 mini; Fujifilm). The antibodies used in this study are listed in supplementary materials.

[3] = test system: ATR-dependent Chk1 phosphorylation; assay: Immunoblot of DNA damage-induced Chk1 phosphorylation; type: cell-based, human
Description: We hypothesized that genes with functions associated with DNA damage checkpoints and/or DNA repair might be targeted by benzopyran-4-one derivatives. To test this hypothesis, we assessed the effects of benzopyran-4-one derivatives on DDR induced by H2O2. […] In response to DNA double-strand breaks (DSBs), FANCD2 is known to be monoubiquitinated on K561 (FANCD2-Ub) in an ATR-dependent manner to stimulate repair (Andreassen P R, et al. Genes Dev 2004).
To elucidate the specificity of the benzopyran-4-one derivatives inhibition on ATR-mediated signaling, we compared the change between cells treated with benzopyran-4-one derivatives or the ATM-specific inhibitor KU55933 before the induction of DDR.
MDA-MB-231 (breast adenocarcinoma; ATCC HTB-26, BCRC 60425) and A549 (lung adenocarcinoma; ATCC CCL-185, BCRC 60074) human cell lines were purchased from Bioresource Collection and Research Center (BCRC, Hsinchu, Taiwan), and were authenticated by American Type Culture Collection (ATCC, Manassas, Va.). U2OS (osteosarcoma), HeLa (cervical adenocarcinoma), and HEK 293T (embryonic kidney cells) human cell lines were provided by Dr. Sheau-Yann Shieh (Institute of Molecular Biology, Academia Sinica, Taipei, Taiwan). Cells were maintained in Dulbecco's modified Eagle's medium (DMEM, Sigma-Aldrich) supplemented with 10% fetal bovine serum (FBS) (Gibco). […] For UV irradiation treatment, the cells were irradiated for 10 J/m^2 by a cross-linker (UVP) 1 h prior to analysis.
as §1

CHO cells = assay: In vitro chromosome aberration test; type: cell-based, Chinese Hamster; conditions: for Average aberrant metaphases (%) / Chromatid break (No.) / Chromatid deletion / Complex rerrangement / Dicentric / Polyploid / Pulverized cell / Quadriradial / Ring / Triradial: Chinese hamster, 20 h
Procedure: To test this hypothesis, we investigated the cytogenetic effect of Protoapigenone (I-1) on CHO cells (FIG. 1).
In brief, 5×10^5 Chinese Hamster Ovary (CHO) cells were seeded in 60-mm dishes 1 d before the experiment. Protoapigenone (I-1)-induced structural chromosomal changes after 20 h were compared with that of the cells cultured in 2 μM mitomycin C. At 18 h after Protoapigenone (I-1), 0.1 μg/mL colchicine was added for 2 h, and metaphase cells were collected by shaking them off the dishes. Mitotic cells were treated with 0.5% KCl for 10 min and fixed with a 3:1 mixture of methanol: glacial acetic acid. The cells were then spread on slides for chromosome staining with 5% Giemsa solution. We then analyzed the chromosome structure of 200 well-spread metaphase cells (100 metaphase cells/experiment) under a 100× oil immersion objective.

O=C1C=CC(O)(c2cc(=O)c3c(ccc4ccccc43)o2)C=C1 [Compound II-1, 3-(1-hydroxy-4-oxo-cyclohexa-2,5-dienyl)-1H-benzo[f]chromen-1-one] was tested, and the “Cytotoxicity, comparison” value (cancer cells) was “more potent than Protoapigenone (I-1)”, the “Survival of MDA-MB-231 cells” value (MDA-MB-231 cells; 2.5 nM to 20.0 nM co-administered with camptothecin) was “not significantly decreased” and the “Survival of MDA-MB-231 cells” value (MDA-MB-231 cells; 2.5 nM to 20.0 nM co-administered with doxorubicin) was “significantly decreased”. The “Survival of MDA-MB-231 cells” value (MDA-MB-231 cells; 2.5 nM to 20.0 nM co-administered with etoposide) was “significantly decreased”, the “Survival of MDA-MB-231 cells” value (MDA-MB-231 cells; 2.5 nM to 20.0 nM co-administered with mytomycin C) was “significantly decreased” and the “Survival of MDA-MB-231 cells” value (MDA-MB-231 cells; 2.5 nM to 20.0 nM co-administered with taxol) was “not significantly decreased”. For the same molecule, the Cancer growth [1] was “significantly slowed cancer growth in a dose-dependent manner”, the “Chk2 activation by compound itself” value ([2]; high dose, no DNA damage (FIGS. 3(a), 3(b))) was “slightly induces” and the “Potency in inhibiting Chk1 phosphorylation, comparison” value ([3]; FIGS. 6(a), 6(b)) was “more potent than Protoapigenone (I-1)”.
In the case of O=C1C=CC(O)(c2cc(=O)c3c(O)cc(O)cc3o2)C=C1 [Compound I-1, Protoapigenone], the Cancer growth [1] is reported as “significantly slowed cancer growth in a dose-dependent manner”, the p53 protein accumulation ([2]; HEK293T cells) is reported as “slight accumulation of the p53 protein” and the “Change of putative DDR signaling (phosphorylation of Chk2 Thr68 and Chk1 Ser345)” value ([2]; HEK293T cells, high doses (10 μM, FIG. 2)) is reported as “did not induce noticeable changes”. For the same molecule, the “MAPKAPK2 phosphorylation (p38 MAPK target)” value ([2]; HEK293T cells, time after exposure) was “phosphorylated starting as early as 2 h”, the “Chromosomal structural changes (breakages, radials, polyploidy), in words” value (CHO cells) was “dose-dependent increases” and the “Obtaining complete mitotic chromosome” value (CHO cells) was “complete mitotic chromosome could not be obtained”. The “Average aberrant metaphases (%)” value (CHO cells; 2.17 μM) was 6.5 * %, the “Chromatid break (No.)” value (CHO cells; 2.17 μM) was 2 No and the Chromatid deletion (CHO cells; 2.17 μM) was 0 No. The Complex rerrangement (CHO cells; 2.17 μM) was 0 No, the Dicentric (CHO cells; 2.17 μM) was 0 No and the Polyploid (CHO cells; 2.17 μM) was 3 No. The Pulverized cell (CHO cells; 2.17 μM) was 0 No, the Quadriradial (CHO cells; 2.17 μM) was 3 No and the Ring (CHO cells; 2.17 μM) was 1 No. For the same molecule, the Triradial (CHO cells; 2.17 μM) was 4 No, the “Average aberrant metaphases (%)” value (CHO cells; 4.35 μM) was 14.0 * % and the “Chromatid break (No.)” value (CHO cells; 4.35 μM) was 1 No. It also gave a Chromatid deletion (CHO cells; 4.35 μM) of 1 No, a Complex rerrangement (CHO cells; 4.35 μM) of 0 No and a Dicentric (CHO cells; 4.35 μM) of 0 No. It also gave a Polyploid (CHO cells; 4.35 μM) of 1 No, a Pulverized cell (CHO cells; 4.35 μM) of 1 No and a Quadriradial (CHO cells; 4.35 μM) of 9 No. For the same molecule, the Ring (CHO cells; 4.35 μM) was 2 No, the Triradial (CHO cells; 4.35 μM) was 13 No and the “Reversal of inhibition of Chk1 phosphorylation by okadaic acid or MG132 pretreatment” value ([3]; 50 μM OA or 20 μM MG132, 10 J/m^2 UV 1 h) was “could not reverse”. For the same molecule, the Chk1 phosphorylation ([3]; A594 cells, 0.1 mM H2O2 for 2 h) was “inhibit” and the “Reversal of Chk1 phosphorylation inhibition by overexpression of ATR mediators” value ([3]; HEK293T cells overexpressing ATRIP, TopBP1, claspin or ATR, 10 J/m^2 UV, 1 h) was “overexpression of ATRIP or TopBP1 did not reverse the inhibitory effect of Protoapigenone (I-1) on Chk1 phosphorylation, whereas overexpression of claspin or ATR did”.
